Reference: US20250250559A1, “METHOD TO ANALYZE AND OPTIMIZE GENE EDITING MODULES AND DELIVERY APPROACHES” (Hoffmann-La Roche Inc., priority 2016, published 2025)
“And” between values parts separate entries of the source, which are not always exact repeats. Identical values can stand only once. “Also recorded” adds a separate entry of the source. Marks after values point to notes of the source that are not given here.

Tests used:
Assay type in all cases: cell-based, human
MCF7 = experiment: Viability (Promega CTG) assay; details: 1 μM Scr7, 8 μM RS-1, 1 μM+8 μM combined
Procedure: The RAD51-stimulatory compound 1 (RS-1) was applied to modulate homologous recombination (HR) during gene editing. RS-1 (Sigma Aldrich) was dissolved in DMSO to generate a stock solution of 10 mg/ml, which was diluted in RPMI medium just before application to cells.
The DNA ligase IV inhibitor SCR7 was applied to modulate non-homologous end joining (NHEJ) during gene editing. SCR7 (Sigma) was dissolved in DMSO to generate a stock solution of 10 mg/ml, which was diluted in RPMI medium just before application to cells.

MCF-7 cells [1] = experiment: PM resistant colony count of MCF-7 exposed to SCR7 and/or RS-1 during SpCas9-mediated DPH1 editing; details: for mean PMr colonies #seeded cells: 80,000: SpCas9 Dph1 gRNA (20 mer); for mean PMr colonies #seeded cells: 80,000 / % PMr relative to DTr colonies: RS-1 8 μM, SCR7 1 μM; for % PMr relative to DTr colonies: SpCas9 Dph1 gRNA
Procedure: (§1) To evaluate and quantify the influence of DNA repair modulators on efficiency and specificity of gene editing, CRISPR/SpCAS9 and DPH1 targeting 20 mer gRNA was combined with compounds that modulate DNA repair mechanisms. The inhibitor Scr7 was applied either 4 hrs before transfection or 18 hrs after transfection of the gene editing modules until […] after transfection to inhibit DNA ligase IV.
SCR7 (1 μM final conc.) or RS-1 (8 μM final conc.) or SCR7+RS-1 (1 μM+8 μM final conc.) were added to MCF7 cells 4 hrs before transfection of the gene editing modules in the ‘early exposure’ setting. […]
(§2) The system upon which to determine the effects of DNA repair modulators consisted of the CRISPR/SpCas9 modules with DPH1 20 mer gRNA, transfected into MCF7 cells and subjected to subsequent DT and PM selection as described in the previous Examples. Frequencies of DTr, PMr, and double-resistant colonies were recorded to reflect gene inactivation and cassette integration events.

MCF-7 cells [2] = experiment: DT resistant colony count of MCF-7 exposed to SCR7 and/or RS-1 during SpCas9-mediated DPH1 editing; details: for mean DTr colonies #seeded cells: 40,000: SpCas9 Dph1 gRNA (20 mer), RS-1 8 μM, SCR7 1 μM; for mean DTr colonies #seeded cells: 40,000 / gRNA specific DT-r colonies (gRNA-scRNA) / Mean DT resistant colonies (4 × 40.000 seeded cells): compound added 4 hrs before transfection; for Mean DT resistant colonies (4 × 40.000 seeded cells): editing entity SpCas9-scRNA
Procedure: as §1
SCR7 (1 μM final conc.) or RS-1 (8 μM final conc.) or SCR7+RS-1 (1 μM+8 μM final conc.) were added to MCF7 cells 4 hrs before transfection of the gene editing modules in the ‘early exposure’ setting. For ‘late exposure’ SCR7 (8 µM final conc.) or RS-1 (1 μM final conc.) were added to MCF7 cells 18 hrs after transfection. In both settings, cells were exposed to the modulators until 96 hr after transfection, i.e. ‘early exposure’ consisted of a treatment for a total of 100 hrs, ‘late exposure’ for a total of 78 hrs.
as §2

MCF-7 cells [3] = experiment: as above; details: SpCas9 Dph1 gRNA (20 mer); compound added 18 hrs after transfection; RS-1 8 μM, SCR7 1 μM
DPH2 gene [4] = experiment: DT resistant colony count after DPH2 gene editing; details: DPH2 assay (integr. vs. k.o.); for # of DT resistant colonies (40,000 seeded cells): MCF7, individual samples A-D
Procedure: (§3) MCF7 cells (Brooks, et al. 1973) were originally obtained from ATCC (subsequently propagated in an in-house cell bank) and maintained in RPMI […] medium supplemented with 10% FCS, 2 mM L-Glutamine and penicillin/streptomycin at 37° C. and 85% humidity. For transfection of plasmids harboring gene-editing modules, 3,000,000 cells were seeded in a 10 cm diameter culture dish and cultivated at 37° C. and humidified 5% CO2. 24 h after seeding, cells were transfected with 20 μg total DNA using JetPEI (Polyplus) according to the manufacturer's protocol but with an N/P ratio of 6:1. Transfection efficiency was determined after 24 h by flow cytometry (FACS Calibur, BD biosciences) of cells that were transfected with a modified eGFP expression plasmid (Zhang, et al. 1996).
(§4) Plasmids encoding CRISPR/Cas9 gene-editing entities (i.e. knock-out and integration systems) against Dph1 (gRNA target sequence: […] (SEQ ID NO: 01) derived from RefSeq: NM_001383) and Dph2 (gRNA target sequence: […] (SEQ ID NO: 02) derived from RefSeq: NM_001039589, NM_001384), and scrambled control (gRNA sequence: […] (SEQ ID NO: 03)) were obtained from OriGene. This system comprises one plasmid expressing a ˜100 nt gRNA under control of a U6 promoter as well as Cas9 nuclease under control of a CMV promoter and a Donor plasmid with a promoter-less GFP/PM expression cassette flanked by homologous arms to the target gene (Dph1 or Dph2). Additional Dph1 gRNA sequence variants of different sizes (OriGene) […]
(§5) MCF7 cells which have all chromosomal copies of DPH1 or DPH2 inactivated are resistant to diphtheria toxin (Stahl, et al. 2015). Thus, occurrence and frequency of toxin resistant cells/colonies upon CRISPR/Cas inflicted gene inactivation provides a measure for efficiency of inactivation of all gene copies. Therefore, MCF/cells were transfected as described in Example 1 with (i) a GFP expression plasmid as transfection control, (ii) the CRISPR/Cas9 Dph1 or Dph2 knock-out/integration system and (iii) knock-out/integration entities containing a scrambled gRNA to determine Cas9 independent integration frequencies. After determination of transfection efficiency, cells were seeded in 6-well plates. For quantification of homozygous knock-out events by DT 20000 cells were seeded and for quantification of integration events by PM or both events 40000 cells were seeded. RPMI medium was exchanged by RPMI medium containing DT or PM or both toxins 3 days after cell seeding. Exchange of medium was repeated every 2-3 days until all dead cells were removed from the plates and actively growing colonies could be detected via microscopic inspection. Thereafter (between day 12 and day 14 after start of toxin exposure), cells were washed 3 times with PBS and subsequently stained with ice cold methylene blue (0.2% in 50% EtOH). Methylene blue solution was subsequently removed and the plates were carefully washed under running water. Finally, cell colonies were counted under the microscope with a 5 mm grid foil.

DPH2 gene [5] = experiment: PM resistant colony count after DPH2 gene editing; details: DPH2 assay (integr. vs. k.o.); for # of PM resistant colonies (40,000 seeded cells): MCF7, individual samples A-D
Procedure: as §3, §4, §5
CRISPR/Cas module for targeted integration contains a puromycin (PM) resistance gene expression cassette without promoter to avoid transient expression. Thus, detection of integration of recombinant sequences into the genome was detected by determining sensitivity of cells towards PM. A concentration of […] PM (which quantitatively eliminates wildtype MCF7 cells) was applied to select MCF7 cells with stably integrated expression cassettes. PM-resistant colonies selected with the same procedure as described above for the DT selection and visualized and quantified (between 12 and 14 days after start of selection) in the same manner as described above for toxin resistant colonies. Number of PM resistant colonies obtained with non-target guide sequences (scrambled gRNA, FIG. 1) reflect the nonspecific integration background. […]

[6] = compound added 4 hrs before transfection
[7] = compound added 18 hrs after transfection
[8] = compound added 4 hr before transfection
[9] = compound added 18 hr after transfection
[10] = listed as Dph2 CRISPR Cas9 gRNA

| Compound | effect on the growth or viability of MCF7 cells at the applied dose (MCF7) | mean PMr colonies #seeded cells: 80,000 (MCF-7 cells [1]; [6]) | mean PMr colonies #seeded cells: 80,000 (MCF-7 cells [1]; [7]) | % PMr relative to DTr colonies (MCF-7 cells [1]; [7]) [%] | % PM resistant colonies relative to untreated control (MCF-7 cells [1]; [8]) [%*] | gRNA specific PM-r colonies (gRNA-scRNA) (MCF-7 cells [1]; [6]) | % PM resistant colonies relative to untreated control (MCF-7 cells [1]; [9]) [%] | mean DTr colonies #seeded cells: 40,000 (MCF-7 cells [2]) | % DT resistant colonies relative to untreated control (MCF-7 cells [2]; [8]) [%] | gRNA specific DT-r colonies (gRNA-scRNA) (MCF-7 cells [2]) | % DT resistant colonies relative to untreated control (MCF-7 cells [2]; [9]) | Mean DT resistant colonies (4 × 40.000 seeded cells) (MCF-7 cells [2]) | mean DTr colonies #seeded cells: 40,000 (MCF-7 cells [3]) | other results |
| --- | --- | --- | --- | --- | --- | --- | --- | --- | --- | --- | --- | --- | --- | --- |
| SCR7 | does not inflict growth inhibitory or toxic effects | 13.3 | 25 | 5.1 | 156 | 9.5 | 125 | 205.3 | 102 | 205.3 | 95%* | 0 | 488.8 | effect on the growth or viability of MCF7 cells at the applied dose (MCF7; listed as Scr7): no effect on the growth or viability; increase of the number of PMr colonies compared to untreated control (MCF-7 cells [1]; compound 4 hrs before until 72 hr after transfection): approx. 2 fold |
| 20 mer SpCas9 Dph2 gRNA: Plasmids encoding SpCas9 and Dph2 gRNA (target GATGTTTAGCAGCCCTGCCG, SEQ ID NO: 02) plus donor plasmid |  |  |  |  |  |  |  |  |  |  |  |  |  | # of DT resistant colonies (40,000 seeded cells) (unheaded second sub-column: mean) (DPH2 gene [4]; MCF7): 130; # of DT resistant colonies (40,000 seeded cells) (DPH2 gene [4]): 162 and 227 (2×) and 215; # of DT resistant colonies (40,000 seeded cells) (DPH2 gene [4]; [10]): 162 and 227 (2×) and 215; # of PM resistant colonies (40,000 seeded cells) (unheaded second sub-column: mean) (DPH2 gene [5]; MCF7): 1.5; # of PM resistant colonies (40,000 seeded cells) (DPH2 gene [5]): 0 (2×) and 1 and 3; # of PM resistant colonies (40,000 seeded cells) (DPH2 gene [5]; [10]): 0 (2×) and 1 and 3 |
| O=C(Nc1ccc(Br)cc1)c1ccc(Br)c(S(=O)(=O)NCc2ccccc2)c1 [RS-1, RAD51-stimulatory compound 1] | no effect on the growth or viability; also recorded: does not inflict growth inhibitory or toxic effects | 14 | 15.3 | 3.0 | 165 | 10.2 | 76 | 201.5 | 100 | 201.5 | 100% | 0 | 512.5 |  |
